pKi: −log10 of the molar value. Read-outs that look alike come from different tables or passages of the source.
What was measured:
Format in all cases: biochemical
[1] = target: MMP-1h (Homo sapiens (Human), UniProt P03956); test: Inhibition constant (Ki) on MMP-1h
From the text: (§1) The inhibition constant Ki of these compounds has been determined according to the protocol described by Devel et al, 2006, J. Biol. Chem. (7).
(§2) In this table I and also in table II below, “h” corresponds to human. All of the compounds have therefore been evaluated on human MMPs.

[2] = target: MMP-2h (Homo sapiens (Human), UniProt P08253); test: Inhibition constant (Ki) on MMP-2h
Method in brief: (§3)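 Human MMPs; Ki by published enzyme-inhibition method.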

[3] = target: MMP-3h (Homo sapiens (Human), UniProt P08254); test: Inhibition constant (Ki) on MMP-3h
Method in brief: as §3

[4] = target: MMP-7h (Homo sapiens (Human), UniProt P09237); test: Inhibition constant (Ki) on MMP-7h
From the text: as §1, §2

[5] = target: MMP-8h (Homo sapiens (Human), UniProt P22894); test: Inhibition constant (Ki) on MMP-8h
[6] = target: MMP-9h (Homo sapiens (Human), UniProt P14780); test: Inhibition constant (Ki) on MMP-9h
Method in brief: as §3

[7] = target: MMP-10h (Homo sapiens (Human), UniProt P09238); test: Inhibition constant (Ki) on MMP-10h
[8] = target: MMP-13h (Homo sapiens (Human), UniProt P45452); test: Inhibition constant (Ki) on MMP-13h
Method in brief: as §3

[9] = target: MMP-14h (Homo sapiens (Human), UniProt P50281); test: Inhibition constant (Ki) on MMP-14h
Method in brief: as §3

[10] = target: MMP-12h (Homo sapiens (Human), UniProt P39900); test: Inhibition constant (Ki) on MMP-12h
[11] = read-out: Ki MMP-1h, human MMP-1
[12] = read-out: Ki MMP-2h, human MMP-2
[13] = read-out: Ki MMP-3h, human MMP-3
[14] = read-out: Ki MMP-7h, human MMP-7
[15] = read-out: Ki MMP-8h, human MMP-8
[16] = read-out: Ki MMP-9h, human MMP-9
[17] = read-out: Ki MMP-10h, human MMP-10
[18] = read-out: Ki MMP-13h, human MMP-13
[19] = read-out: Ki MMP-14h, human MMP-14
[20] = read-out: Ki MMP-12h, human MMP-12

MMP-2h, sequence (P08253 110-660): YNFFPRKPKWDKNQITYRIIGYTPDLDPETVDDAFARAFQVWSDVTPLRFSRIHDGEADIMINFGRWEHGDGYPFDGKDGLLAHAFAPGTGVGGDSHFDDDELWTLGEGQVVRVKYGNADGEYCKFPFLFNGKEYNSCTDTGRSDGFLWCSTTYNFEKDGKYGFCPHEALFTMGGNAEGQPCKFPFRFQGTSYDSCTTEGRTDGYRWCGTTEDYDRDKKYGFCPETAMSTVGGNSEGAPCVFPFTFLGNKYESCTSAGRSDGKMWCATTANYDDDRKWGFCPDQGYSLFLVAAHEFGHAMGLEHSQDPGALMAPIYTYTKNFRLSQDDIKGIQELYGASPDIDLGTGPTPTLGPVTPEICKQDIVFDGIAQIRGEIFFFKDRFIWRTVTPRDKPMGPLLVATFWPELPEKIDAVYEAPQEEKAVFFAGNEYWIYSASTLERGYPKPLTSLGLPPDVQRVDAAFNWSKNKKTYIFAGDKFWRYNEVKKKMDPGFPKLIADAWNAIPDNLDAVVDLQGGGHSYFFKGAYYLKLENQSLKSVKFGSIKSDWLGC
MMP-8h, sequence (P22894 101-467): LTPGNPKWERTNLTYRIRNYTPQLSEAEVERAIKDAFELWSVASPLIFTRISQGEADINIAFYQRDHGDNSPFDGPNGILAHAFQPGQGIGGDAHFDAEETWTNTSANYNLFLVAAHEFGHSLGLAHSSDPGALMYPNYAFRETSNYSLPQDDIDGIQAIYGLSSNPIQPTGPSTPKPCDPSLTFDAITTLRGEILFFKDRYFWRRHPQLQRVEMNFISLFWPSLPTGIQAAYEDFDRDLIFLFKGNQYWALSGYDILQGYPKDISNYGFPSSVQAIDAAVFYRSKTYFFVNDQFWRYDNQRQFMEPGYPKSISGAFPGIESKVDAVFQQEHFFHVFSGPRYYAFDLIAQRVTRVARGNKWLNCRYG
MMP-1h, sequence (P03956 100-469): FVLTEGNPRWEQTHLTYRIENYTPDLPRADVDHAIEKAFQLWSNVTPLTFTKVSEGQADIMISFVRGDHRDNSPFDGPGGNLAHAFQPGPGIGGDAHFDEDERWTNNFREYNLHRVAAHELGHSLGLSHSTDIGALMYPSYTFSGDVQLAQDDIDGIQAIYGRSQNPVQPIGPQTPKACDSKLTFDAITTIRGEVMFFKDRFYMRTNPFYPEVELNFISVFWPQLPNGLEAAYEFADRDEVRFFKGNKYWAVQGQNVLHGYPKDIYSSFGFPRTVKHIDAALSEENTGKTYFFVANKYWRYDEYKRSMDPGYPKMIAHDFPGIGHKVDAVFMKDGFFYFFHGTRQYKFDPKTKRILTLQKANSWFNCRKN
MMP-10h, sequence (P09238 99-476): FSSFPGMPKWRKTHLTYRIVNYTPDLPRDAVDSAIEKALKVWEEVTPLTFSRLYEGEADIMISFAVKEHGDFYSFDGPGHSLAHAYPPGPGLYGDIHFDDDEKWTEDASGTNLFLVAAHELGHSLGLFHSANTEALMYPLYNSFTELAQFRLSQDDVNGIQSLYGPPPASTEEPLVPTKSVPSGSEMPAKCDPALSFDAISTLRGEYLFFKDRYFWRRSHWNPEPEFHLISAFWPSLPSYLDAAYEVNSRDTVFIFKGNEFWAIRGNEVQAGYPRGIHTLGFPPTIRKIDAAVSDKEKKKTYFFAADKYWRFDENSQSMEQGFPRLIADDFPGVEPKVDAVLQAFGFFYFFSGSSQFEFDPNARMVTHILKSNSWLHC
MMP-3h, sequence (P08254 100-477): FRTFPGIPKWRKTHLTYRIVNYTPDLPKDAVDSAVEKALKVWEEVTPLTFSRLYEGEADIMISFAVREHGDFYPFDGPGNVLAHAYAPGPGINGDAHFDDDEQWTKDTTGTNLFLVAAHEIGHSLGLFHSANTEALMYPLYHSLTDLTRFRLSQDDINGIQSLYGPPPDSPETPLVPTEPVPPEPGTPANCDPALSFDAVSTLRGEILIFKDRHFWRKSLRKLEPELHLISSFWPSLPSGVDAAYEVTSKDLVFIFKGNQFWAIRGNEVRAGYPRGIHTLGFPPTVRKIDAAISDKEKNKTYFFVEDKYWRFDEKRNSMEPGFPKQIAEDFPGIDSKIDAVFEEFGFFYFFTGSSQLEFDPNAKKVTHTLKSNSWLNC
MMP-12h, sequence (P39900 106-470): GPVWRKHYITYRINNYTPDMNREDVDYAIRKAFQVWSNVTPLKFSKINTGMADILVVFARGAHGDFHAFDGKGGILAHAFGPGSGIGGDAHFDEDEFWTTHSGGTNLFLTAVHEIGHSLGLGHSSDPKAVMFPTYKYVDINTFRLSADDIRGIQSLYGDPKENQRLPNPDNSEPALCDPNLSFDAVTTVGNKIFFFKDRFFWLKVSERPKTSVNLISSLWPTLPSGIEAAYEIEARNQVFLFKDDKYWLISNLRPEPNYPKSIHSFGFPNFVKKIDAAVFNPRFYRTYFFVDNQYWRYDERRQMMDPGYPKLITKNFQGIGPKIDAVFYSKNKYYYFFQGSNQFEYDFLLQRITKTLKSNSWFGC
MMP-9h, sequence (P14780 94-707): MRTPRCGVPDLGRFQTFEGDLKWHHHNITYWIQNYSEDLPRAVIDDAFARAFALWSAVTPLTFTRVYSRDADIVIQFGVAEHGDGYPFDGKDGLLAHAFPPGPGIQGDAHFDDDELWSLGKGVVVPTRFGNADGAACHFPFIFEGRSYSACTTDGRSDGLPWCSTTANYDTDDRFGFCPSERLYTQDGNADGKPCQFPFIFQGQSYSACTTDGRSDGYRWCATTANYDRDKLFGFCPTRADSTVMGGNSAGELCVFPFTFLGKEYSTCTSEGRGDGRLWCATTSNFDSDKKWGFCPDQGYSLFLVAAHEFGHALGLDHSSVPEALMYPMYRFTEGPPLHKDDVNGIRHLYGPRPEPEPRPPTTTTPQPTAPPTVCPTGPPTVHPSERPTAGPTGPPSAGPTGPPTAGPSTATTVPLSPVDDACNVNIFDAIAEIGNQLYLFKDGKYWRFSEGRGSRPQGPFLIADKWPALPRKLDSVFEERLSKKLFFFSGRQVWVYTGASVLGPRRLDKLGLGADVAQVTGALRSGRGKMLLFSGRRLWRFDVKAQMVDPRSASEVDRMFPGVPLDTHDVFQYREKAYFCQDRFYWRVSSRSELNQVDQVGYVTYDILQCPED
MMP-7h, sequence (P09237 95-267): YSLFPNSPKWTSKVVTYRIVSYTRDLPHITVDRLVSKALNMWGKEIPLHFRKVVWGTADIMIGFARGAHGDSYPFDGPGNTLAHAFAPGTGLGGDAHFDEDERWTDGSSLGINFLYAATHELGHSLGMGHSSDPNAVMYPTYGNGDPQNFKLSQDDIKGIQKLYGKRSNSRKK

Structure (SMILES)	pKi [1, 11]	pKi [2, 12]	pKi [3, 13]	pKi [4, 14]	pKi [5, 15]	pKi [6, 16]	pKi [7, 17]	pKi [8, 18]	pKi [9, 19]	pKi [10, 20]	other results
NC(=O)[C@H](CCC(=O)O)NC(=O)[C@H](CCC(=O)O)NC(=O)CCc1cc(-c2ccccc2)no1 [Compound 14, (S)-5-amino-4-((S)-4-carboxy-2-(3-(3-phenylisoxazol-5-yl)propanamido)butanamido)-5-oxopentanoic acid]	< 5.00	6.12	< 5.00	< 5.00	6.95	< 6.00	< 6.00	< 6.00	< 6.00	–	–
NC(=O)[C@H](CCC(=O)O)NC(=O)[C@H](CCC(=O)O)NC(=O)CCc1ccc(-c2cccs2)cc1 [Compound 80, (S)-5-amino-4-((S)-4-carboxy-2-(3-(4-(thiophen-2-yl)phenyl)propanamido)butanamido)-5-oxopentanoic acid]	< 4.00	6.85	< 6.00	< 6.00	7.40	< 6.00	6.43	6.49	< 6.00	8.07	–
NC(=O)[C@H](CCC(=O)O)NC(=O)CCc1ccc(-c2cc(-c3ccccc3)cs2)cc1 [Compound 105, (S)-5-amino-5-oxo-4-(3-(4-(4-phenylthiophen-2-yl)phenyl)propanamido)pentanoic acid]	< 5.00	6.42	< 6.00	< 5.00	–	< 6.00	< 6.00	6.22	< 6.00	8.44	–
O=C(O)CC[C@H](NC(=O)CCc1ccc(-c2cc(-c3ccccc3)cs2)cc1)C(=O)Nc1cccc(CC(=O)O)c1 [Compound 106, (S)-5-(3-(carboxymethyl)phenylamino)-5-oxo-4-(3-(4-(4-phenylthiophen-2-yl)phenyl)propanamido)pentanoic acid]	< 6.00	6.47	6.10	< 6.00	6.17	6.40	6.50	6.88	< 6.00	8.37	–
N=c1ccc2c(-c3cc(C(=O)NCCCOCCOCCOCCCNC(=O)[C@H](CCC(=O)O)NC(=O)[C@H](CCC(=O)O)NC(=O)CCc4ccc(-c5cc(-c6ccccc6)cs5)cc4)ccc3C(=O)O)c3ccc(N)c(S(=O)(=O)O)c3oc-2c1S(=O)(=O)O [Compound 108]	–	–	–	–	–	–	–	–	–	–	pKi [1]: < 5.00; Selectivity factor/MMP12, MMP-1h ([1]; Ki MMP-1h/Ki MMP-12): 670; pKi [2]: < 5.60; Selectivity factor/MMP12, MMP-2h ([2]; Ki MMP-2h/Ki MMP-12): 170; pKi [3]: < 5.00; Selectivity factor/MMP12, MMP-3h ([3]; Ki MMP-3h/Ki MMP-12): 670; pKi [4]: < 5.00; Selectivity factor/MMP12, MMP-7h ([4]; Ki MMP-7h/Ki MMP-12): 670; pKi [5]: < 5.60; Selectivity factor/MMP12, MMP-8h ([5]; Ki MMP-8h/Ki MMP-12): 170; pKi [6]: < 5.30; Selectivity factor/MMP12, MMP-9h ([6]; Ki MMP-9h/Ki MMP-12): 333; pKi [7]: 6.08; Selectivity factor/MMP12, MMP-10h ([7]; Ki MMP-10h/Ki MMP-12): 55; pKi [10]: 7.82; Selectivity factor/MMP12, MMP-12h ([10]; Ki MMP-12h/Ki MMP-12): 1; pKi [8]: < 6.00; Selectivity factor/MMP12, MMP-13h ([8]; Ki MMP-13h/Ki MMP-12): 66; pKi [9]: < 5.00; Selectivity factor/MMP12, MMP-14h ([9]; Ki MMP-14h/Ki MMP-12): 670
NC(=O)[C@H](CCC(=O)O)NC(=O)[C@H](CCC(=O)O)NC(=O)CCc1ccc(-c2ccc(-c3ccccc3)cc2)cc1 [Compound 61, (S)-5-amino-4-((S)-4-carboxy-2-(3-(4′-phenylbiphenyl-4-yl)propanamido)butanamido)-5-oxopentanoic acid]	< 5.30	7.28	7.13	6.30	6.88	< 6.00	7.12	7.70	< 6.00	8.79	–
NC(=O)[C@H](CCC(=O)O)NC(=O)[C@H](CC(=O)O)NC(=O)CCc1ccc(-c2cc(-c3ccccc3)cs2)cc1 [Compound 100, (S)-5-amino-4-((S)-3-carboxy-2-(3-(4-(4-phenylthiophen-2-yl)phenyl)propanamido)propanamido)-5-oxopentanoic acid]	–	6.06	< 6.00	–	6.25	< 6.00	< 6.00	6.25	< 6.00	7.82	–
NC(=O)[C@H](CCC(=O)O)NC(=O)[C@H](CC(=O)O)NC(=O)CCc1cc(-c2ccc(-c3ccccc3)cc2)no1 [Compound 17, (S)-5-amino-4-((S)-2-(3-(3-(biphenyl-4-yl)isoxazl-5-yl)propanamido)-3-carboxypropanamido)-5-oxopentanoic acid]	–	7.19	6.16	–	< 6.00	< 6.00	< 6.00	7.44	< 5.30	7.28	–
O=C(O)CC[C@H](NC(=O)CCc1ccc(-c2ccccc2)cc1)C(=O)Nc1cccc(CC(=O)O)c1 [Compound 52, (S)-4-(3-(biphenyl-4-yl)propanamido)-5-(3-(carboxymethyl)phenylamino)-5-oxopentanoic acid]	–	6.26	< 5.30	–	7.20	< 6.00	6.36	< 6.00	< 6.00	7.90	–
NC(=O)CC[C@H](NC(=O)[C@H](CCC(=O)O)NC(=O)CCc1ccc(-c2ccccc2)cc1)C(N)=O [Compound 42, (S)-4-(3-(biphenyl-4-yl)propanamido)-5-((S)-1,5-diamino-1,5-dioxopentan-2-ylamino)-5-oxopentanoic acid]	–	–	–	–	–	–	–	–	–	–	pKi ([2]; human MMP-2): 6.35; pKi ([3]; human MMP-3): < 5.30; pKi ([5]; human MMP-8): 6.55; pKi ([6]; human MMP-9): < 6.00; pKi ([7]; human MMP-10): < 6.00; pKi ([10]; human MMP-12): 7.32; pKi ([8]; human MMP-13): 6.05; pKi ([9]; human MMP-14): < 6.00
NC(=O)[C@H](CCC(=O)O)NC(=O)[C@H](CCC(=O)O)NC(=O)CCc1ccc(-c2cccc([N+](=O)[O-])c2)cc1 [Compound 55, (S)-5-amino-4-((S)-4-carboxy-2-(3-(3′-nitrobiphenyl-4-yl)propanamido)butanamido)-5-oxopentanoic acid]	–	–	–	–	–	–	–	–	–	–	pKi ([2]; human MMP-2): < 6.00; pKi ([3]; human MMP-3): 6.06; pKi ([5]; human MMP-8): < 6.00; pKi ([6]; human MMP-9): 6.16; pKi ([7]; human MMP-10): < 6.00; pKi ([10]; human MMP-12): 7.14; pKi ([8]; human MMP-13): 6.36; pKi ([9]; human MMP-14): < 5.30
NC(=O)[C@H](Cc1c[nH]cn1)NC(=O)[C@H](CCC(=O)O)NC(=O)CCc1ccc(-c2cccs2)cc1 [Compound 86, (S)-5-((S)-1-amino-3-(1H-imidazol-4-yl)-1-oxopropan-2-ylamino)-5-oxo-4-(3-(4-(thiophen-2-yl)phenyl)propanamido)pentanoic acid]	–	6.43	< 5.00	–	7.20	< 6.00	< 6.00	< 6.00	< 6.00	7.47	–
NC(=O)[C@H](CCC(=O)O)NC(=O)[C@H](CC(=O)O)NC(=O)CCc1ccc(-c2ccc(-c3ccccc3)cc2)cc1 [Compound 74, (S)-5-amino-4-((S)-3-carboxy-2-(3-(4′-phenylbiphenyl-4-yl)propanamido)propanamido)-5-oxopentanoic acid]	–	7.41	7.80	–	6.06	< 6.00	6.37	7.87	< 6.00	7.98	–

From patent US8691753B2 (priority 2009, dated 2014)
